What was measured:
cGKII = molecular target: T1, cGKII (Homo sapiens, UniProt Q13237); test: […]-ATP peptide (2A3) phosphorylation; format: biochemical; conditions: read-out: pIC50 in vitro (converted)
T1 construct: gene PRKG2; recombinant full-length, His-tagged, baculovirus insect cell expression; dimer
T1 sequence (Q13237 2-762): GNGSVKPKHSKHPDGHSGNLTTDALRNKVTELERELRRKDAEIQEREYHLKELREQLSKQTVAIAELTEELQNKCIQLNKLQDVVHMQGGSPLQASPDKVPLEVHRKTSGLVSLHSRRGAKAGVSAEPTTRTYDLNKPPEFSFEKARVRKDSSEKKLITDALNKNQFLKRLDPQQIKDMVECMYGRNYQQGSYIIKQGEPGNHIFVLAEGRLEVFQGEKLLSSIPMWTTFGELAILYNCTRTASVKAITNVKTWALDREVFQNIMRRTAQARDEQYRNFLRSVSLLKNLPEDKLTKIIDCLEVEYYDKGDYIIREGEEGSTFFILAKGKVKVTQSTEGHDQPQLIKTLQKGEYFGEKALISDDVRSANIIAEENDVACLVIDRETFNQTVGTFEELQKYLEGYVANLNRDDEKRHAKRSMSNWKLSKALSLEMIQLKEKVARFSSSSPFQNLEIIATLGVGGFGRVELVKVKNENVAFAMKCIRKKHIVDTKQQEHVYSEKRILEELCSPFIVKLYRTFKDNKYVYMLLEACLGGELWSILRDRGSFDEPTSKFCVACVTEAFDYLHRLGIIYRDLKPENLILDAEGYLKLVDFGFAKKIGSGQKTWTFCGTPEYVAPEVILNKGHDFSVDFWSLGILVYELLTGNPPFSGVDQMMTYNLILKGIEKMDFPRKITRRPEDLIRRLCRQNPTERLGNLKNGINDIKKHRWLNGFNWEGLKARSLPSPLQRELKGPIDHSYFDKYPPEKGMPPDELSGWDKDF

cGKI = molecular target: T2, cGKI (Homo sapiens, UniProt Q13976); test: […]-ATP peptide (2A3) phosphorylation; format: biochemical; conditions: 50 uM cGMP, pH 7.4, 5 mM MgCl2, 22 C
T2 construct: gene PRKG1; recombinant full-length, commercial (Promega)
T2 sequence (Q13976 2-671): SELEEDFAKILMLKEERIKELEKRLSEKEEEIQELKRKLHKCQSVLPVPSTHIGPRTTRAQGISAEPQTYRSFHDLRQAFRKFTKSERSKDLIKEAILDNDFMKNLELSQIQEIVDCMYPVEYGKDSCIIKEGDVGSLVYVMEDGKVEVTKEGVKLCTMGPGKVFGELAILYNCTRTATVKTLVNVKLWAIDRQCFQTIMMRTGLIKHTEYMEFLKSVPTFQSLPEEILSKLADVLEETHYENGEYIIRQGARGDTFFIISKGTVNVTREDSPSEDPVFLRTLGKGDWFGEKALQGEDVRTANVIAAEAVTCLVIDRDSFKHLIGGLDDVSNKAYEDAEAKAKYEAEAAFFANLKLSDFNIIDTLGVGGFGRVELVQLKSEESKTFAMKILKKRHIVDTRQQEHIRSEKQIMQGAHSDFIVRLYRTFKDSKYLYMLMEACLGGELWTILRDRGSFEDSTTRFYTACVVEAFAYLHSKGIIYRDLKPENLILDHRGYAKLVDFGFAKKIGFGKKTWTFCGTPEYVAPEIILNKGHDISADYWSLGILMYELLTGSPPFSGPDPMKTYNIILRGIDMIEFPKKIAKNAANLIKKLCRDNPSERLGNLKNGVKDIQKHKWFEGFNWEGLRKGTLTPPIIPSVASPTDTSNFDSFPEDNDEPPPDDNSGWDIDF

Row | Structure (SMILES) | IC50 (cGKII) | pIC50 (cGKI)
1 | OCCNc1nccc(-c2ccc(-n3ccnc3)cc2)n1 [AP-C6] | 316 nM | potency of inhibition of cGKI and PKA was markedly lower than of cGKII
2 | c1ccc2c(CCNc3nccc(-c4ccc5c(c4)OCCO5)n3)c[nH]c2c1 [AP-C4] | 6310 nM | –
3 | COc1ccc(CCNc2nccc(-c3ccc4ccccc4c3)n2)cc1OC [AP-C1] | 316 nM | –

The next lines start with results.

Row | IC50 (cGKII) | Structure (SMILES) | pIC50 (cGKI)
4 | 10000 nM | c1coc(CNc2nccc(-c3ccc(-n4ccnc4)cc3)n2)c1 [AP-C7] | –
5 | 6310 nM | c1csc(-c2ccnc(NCCc3c[nH]c4ccccc34)n2)c1 [AP-C2] | –
6 | 63.1 nM | C#CCNc1nccc(-c2ccc(-n3ccnc3)cc2)n1 [AP-C5] | potency of inhibition of cGKI and PKA was markedly lower than of cGKII
7 | 501 nM | COc1ccc(CCNc2nccc(-c3ccc4c(c3)OCCO4)n2)cc1OC [AP-C3] | –

Source: paper PMC5971447, “Selective inhibition of intestinal guanosine 3′,5′-cyclic monophosphate signaling by small-molecule protein kinase inhibitors” (The Journal of Biological Chemistry, 2018)
